# From patent US20240132503A1, “SALT FORM AND CRYSTAL FORM OF PYRAZOLE SUBSTITUTED IMIDAZO[1,2- A]QUINOXALINE DERIVATIVE” (OCUMENSION THERAPEUTICS (SUZHOU) CO., LTD, priority 2021, published 2024)
# Read-outs that look alike come from different tables or passages of the source.
# Columns and labels:
# [1] = Pharmacokinetics in plasma and eye tissues of male SD rats after single administration of eye drop; type: in vivo; settings: for half-life / AUC(0-t) / Cmax / Tmax / AUC(0-inf) / MRT inf / Kp / MRT last: rat, topical or ocular; for AUC(0-inf) / MRT inf: extrapolated; for MRT inf: read-out: MRT0-inf; for Kp: read-out: AUC ratio (tissue AUC0-last/plasma AUC0-last); for MRT last: read-out: MRT0-last
# Experimental: Test purpose: to study pharmacokinetics of the compound in eye tissues of male SD rats after single administration of eye drop
# Test material: SD rats (male, 7 to 10 weeks of age, WTLH/SLAC)
# Test operation: In this test, 18 male SD rats were provided by Beijing Vital River Laboratory Animal Technology Co., Ltd., and were randomly divided into 6 groups (3 rats/group), and each group of animals were given […] (5 mg/mL for both eyes, 30 μL/eye) of OT202 eye drops during single administration. All animals were not fasted before administration.
# [2] = target: Syk protein kinase (Homo sapiens (Human), UniProt P43405); assay: In vitro evaluation of inhibitory activity against Syk protein kinase (HTRF KinEASE TK); type: biochemical
# Description: Test purpose: to measure an inhibitory IC50 value of the compounds against Syk protein kinase.
# Test material: Syk kinase (Invitrogen, PV3857) • DTT (Sigma#43815): dithiothreitol • ATP (Sigma#A7699): triphosadenine • MgCl2 (Sigma#63020): magnesium chloride • MnCl2 (Sigma#M1787): manganese chloride • EDTA (Invitrogen#15575-020): ethylenediaminetetraacetic acid • HEPES Buffer (Invitrogen#15630-080): zwitterionic sulfonic acid buffer • HTRF® KinEASE™ TK (Cisbio#62TK0PEC, 20000 tests): HTRF kinase kit • Low volume, 384-well, white polystyrene plate (Greiner#784075) • 384-well microplates (Greiner#781946) • Centrifuge (Eppendorf#5810R) • Micropipette (Eppendorf) • Pipette (Greiner) • Pipettor (Eppendorf) • Mutidorp injector • POD 810 Plate Assembler Fully Automatic Microplate Pretreatment System • Envision Reader […]
# [3] = SD (Sprague-Dawley), male SD rats, single eye drop 5 mg/mL, 30 μL/eye, both eyes, Aqueous humor of anterior chamber
# [4] = SD (Sprague-Dawley), male SD rats, single eye drop 5 mg/mL, 30 μL/eye, both eyes, Bulbar conjunctiva
# [5] = SD (Sprague-Dawley), male SD rats, single eye drop 5 mg/mL, 30 μL/eye, both eyes, Cornea
# [6] = SD (Sprague-Dawley), male SD rats, single eye drop 5 mg/mL, 30 μL/eye, both eyes, Plasma
# [7] = SD (Sprague-Dawley), male SD rats, single eye drop 5 mg/mL, 30 μL/eye, both eyes, Upper and lower eyelids
# [8] = male SD rats, single eye drop 5 mg/mL, 30 μL/eye, both eyes, Aqueous humor of anterior chamber
# [9] = male SD rats, single eye drop 5 mg/mL, 30 μL/eye, both eyes, Bulbar conjunctiva
# [10] = male SD rats, single eye drop 5 mg/mL, 30 μL/eye, both eyes, Cornea
# [11] = male SD rats, single eye drop 5 mg/mL, 30 μL/eye, both eyes, Plasma
# [12] = male SD rats, single eye drop 5 mg/mL, 30 μL/eye, both eyes, Upper and lower eyelids
smiles,measurement,setting,value
c1cn2c(n1)c(Nc1ccc(N3CCOCC3)cc1)nc1ccc(-c3cn[nH]c3)cc12,half-life,"[1]; SD (Sprague-Dawley), both eyes, male SD rats, single eye drop 5 mg/mL, 30 μL/eye, Aqueous humor of anterior chamber, sampling range 6-24 h",12.3 h
same,half-life,"[1]; SD (Sprague-Dawley), both eyes, male SD rats, single eye drop 5 mg/mL, 30 μL/eye, Bulbar conjunctiva, sampling range 1-24 h, linear regression coefficient of elimination phase less than 0.9",5.12 h
same,half-life,"[1]; SD (Sprague-Dawley), both eyes, male SD rats, single eye drop 5 mg/mL, 30 μL/eye, Cornea, sampling range 1-24 h",4.84 h
same,half-life,"[1]; SD (Sprague-Dawley), both eyes, male SD rats, single eye drop 5 mg/mL, 30 μL/eye, Plasma, sampling range 1-6 h, linear regression coefficient of elimination phase less than 0.9",4.8 h
same,half-life,"[1]; SD (Sprague-Dawley), both eyes, male SD rats, single eye drop 5 mg/mL, 30 μL/eye, Upper and lower eyelids, sampling range 1-24 h",9.45 h
same,AUC(0-t),[1]; [3],0.657 µM·h
same,Cmax,[1]; [3],560 nM
same,Tmax,[1]; [3],0.5 h
same,AUC(0-inf),[1]; [3],0.711 µM·h
same,AUC(0-t),[1]; [4],15.5 µM·h
same,Cmax,[1]; [4],4510 nM
same,Tmax,[1]; [4],0.5 h
same,AUC(0-inf),[1]; [4],16.4 µM·h
same,AUC(0-t),[1]; [5],2.53 µM·h
same,Cmax,[1]; [5],1590 nM
same,Tmax,[1]; [5],0.5 h
same,AUC(0-t),[1]; [6],0.00532 µM·h
same,Cmax,[1]; [6],1.23 nM
same,Tmax,[1]; [6],1 h
same,AUC(0-inf),[1]; [6],0.00956 µM·h
same,AUC(0-t),[1]; [7],65.5 µM·h
same,Cmax,[1]; [7],10400 nM
same,Tmax,[1]; [7],0.5 h
same,"pharmacokinetic features, including eye-to-blood ratio, tissue exposure",[1]; conclusion in words,good pharmacokinetic features
same,AUC0-inf/AUC0-last (%),[1]; [8],108%
same,Tlast,[1]; [8],24.0 h
same,AUC0-inf/AUC0-last (%),[1]; [9],106%
same,Tlast,[1]; [9],24.0 h
same,AUC0-inf/AUC0-last (%),[1]; [10],102%
same,Tlast,[1]; [10],24.0 h
same,AUC0-inf/AUC0-last (%),[1]; [11],180%
same,Tlast,[1]; [11],6.00 h
same,AUC0-inf/AUC0-last (%),[1]; [12],122%
same,AUC ratio (tissue AUC0-last/plasma AUC0-last),[1]; [12],12300
same,Tlast,[1]; [12],24.0 h
same,MRT inf,[1]; [8],6.27 h
same,Kp,[1]; [8],123
same,MRT last,[1]; [8],3.35 h
same,MRT inf,[1]; [9],6.73 h
same,Kp,[1]; [9],2910
same,MRT last,[1]; [9],5.28 h
same,AUC(0-inf),[1]; [10],2.59 µM·h
same,MRT inf,[1]; [10],5.74 h
same,Kp,[1]; [10],476
same,MRT last,[1]; [10],5.05 h
same,MRT inf,[1]; [11],7.39 h
same,MRT last,[1]; [11],2.98 h
same,AUC(0-inf),[1]; [12],80 µM·h
same,MRT inf,[1]; [12],13.7 h
same,MRT last,[1]; [12],8.4 h
same,IC50,[2]; ATP 2 μM,25 nM
same,inhibitory activity against Syk,[2]; conclusion in words,good inhibitory activity
